The text below walks through data of patent US20080220416A1, “Compositions for Inhibiting Cell Growth and Inducing Apoptosis in Cancer Cells and Methods of Use Thereof” (THE BOARD OF TRUSTEES OF THE UNIVERSITY OF ILLINOI, priority 2004, published 2008).

Molecules are shown by their SMILES. Peptide text beside a SMILES is read from it. * marks the point of attachment. Cbz = O=C(OCc1ccccc1)*

The test system of the experiment is NOXA. Description: Western blot of NOXA after proteasome inhibitors in normal melanocytes. The format is cell-based, human. The following applies: 18 hrs. From the text: A panel of melanoma cells were used to assess the effect of bortezomib on pro-apoptotic proteins. RJ002L, C8161, MUM2B and SK-MeI-28 melanoma cells, as well as two normal melanocyte cultures (MC-010 and MC-012) were examined. Prior to testing, the RJ002L melanoma cell lines were maintained in RPMI supplemented with 10% FBS. Late passage melanoma cell lines (C8161, MUM2B and SK-Me1028) were utilized as previously described (Welch D et al., 1991, Int J Cancer 47:227-237; Bittner M et al., 2000, Nature 406:536-540). Normal human melanocytes were isolated from neonatal foreskins and cultured as previously described (Qin J et al., 2004, Mol Cancer Ther 3:895-902). Proliferating cells were examined by Western blot analysis before and after 18 hrs of exposure to bortezomib (1 μM). Antibodies were obtained as follows: Bad (SC-8044), Bcl-2 (SC-7382), Bcl-xL (SC-634), Mcl-1 (SC-819), Bak (SC-832) from Santa Cruz Biotechnology (Santa Cruz, Calif.); NOXA (OP180) from Calbiochem; Bid, Bim and PUMA from Cell Signaling (Beverly, Mass.); BAX from Upstate (Charlottesville, Va.); and β-actin from ICN (Irvine, Calif.). For the Western blot analysis, whole cell extracts were prepared as previously described (Denning M et al., 1998, J Biol Chem 273:29995-30002). Briefly, cells were harvested by scraping monolayers and washed with PBS. Cell pellets were resuspended in CHAPS buffers containing a protease inhibitor cocktail. Extracts were vigorously shaken at 4° C. for 15 min followed by centrifugation. Supernatants were collected and protein concentration determined using Bio-Rad reagent. Thirty to 50 microgram protein samples were resolved by SDS-polyacrylamide gel electrophoresis and transferred to polyvinylidene difluoride membrane by electroblotting. Membranes were probed with the various primary antibodies overnight at 4° C., followed by detection using ECL reagents (Amersham Pharmacia Biotech, Piscataway, N.J.) according to manufacturer's instructions.
Two other proteasome inhibitors, lactasytsin and MG-132, were tested for the ability to induce NOXA in melanoma cells and melanocytes. […]
In general terms: Immunoblotting shows a protein as a band on a membrane.

Turning to `CC(C)C[C@@H](C=O)NC(=O)[C@H](CC(C)C)NC(=O)[C@H](CC(C)C)NC(=O)OCc1ccccc1` [MG-132, benzoxycarbonyl-Leucyl-Leucyl-Leucyl-aldehyde] (Cbz-Leu-Leu-Leu-aldehyde), for the setting “MC-004, MC-005, MC-006, MC-008, 1 μM or 10 μM”, the NOXA induction result is given as “no induction of NOXA in any of the normal melanocytes”.
For the compound `CC(C)C[C@H](NC(=O)[C@H](Cc1ccccc1)NC(=O)c1cnccn1)B(O)O` [bortezomib, N-(2-pyrazine)carbonyl-L-phenylalanine-L-leucine boronic acid], the NOXA induction entry (MC-010, MC-012, 1 μM) is listed as “did not exhibit NOXA induction”.
